Experimental findings from publication PMC12724231, “APC24-7, a covalent combination of boronic acid and chelator moieties, restores β-lactam efficiency against metallo-β-lactamase-producers” (mSphere, 2025) are described below.

Common to all, as to experiment: microbe, parasite or virus in culture
For one assay, the system named is T1, Escherichia coli MP21-05.
T1 construct: MP21-05
Set-up: species or system E. coli E. cloni 10G; Microdilution MIC of inhibitor alone in LB, OD600 read-out, E. coli 10G without or with empty vector. The note with it: MP2105, inhibitor alone. The method, then: (§1) Susceptibility testing of isogenic E. coli E. cloni 10G (Table 2) was determined by both the microdilution assay. […] Overnight cultures were prepared in LB supplemented with 25 mg/L chloramphenicol at 37°C under shaking at 700 rpm. The overnight cultures were diluted in PBS to 10^6 CFU/ mL, followed by inoculation in LB to ~10^5 CFU in 384-well plates (VWR, Radnor, PA, USA). Plates were prepared with twofold increasing concentrations of meropenem and cefepime ([…], respectively) to a total inoculated volume of 100 µL Plates were incubated at 37°C without shaking for 19–21 h. OD600 was determined in a SpectraMax Plus plate reader (Molecular Devices).

For the next assay, the system named is T2, Escherichia coli MP32-64.
T2 construct: MP32-64
On the set-up: species or system E. coli E. cloni 10G; Microdilution MIC of inhibitor alone in LB, OD600 read-out, E. coli 10G without or with empty vector. The note with it: MP3264, inhibitor alone. The method, then:
as §1

The subject of the next assay is T3, Escherichia coli #22.
T3 construct: #22
On the set-up: species or system clinical isolates of E. coli and K. pneumoniae; Broth microdilution MIC (CLSI), cation-adjusted Mueller-Hinton broth, visual reading, antibiotic alone against clinical isolates. To be noted: Escherichia coli, antibiotic alone. How it is done: (§2) MICs for clinical isolates were determined in a broth microdilution assay according to Clinical and Laboratory Standards Institute (CLSI) ([75]), using cation-adjusted Mueller-Hinton broth (Thermo Fisher Scientific, Lenexa, USA). The direct colony suspension method was utilized by preparing an inoculum of an OD600 0.17, except for E. coli #36 in which 0.10 was used, which equated to a concentration of 10^8 colony-forming units (CFU) per mL. Inoculum controls were included for all assays ([76]). MICs for all clinical isolates were determined alone and in combination with inhibitors for all BLs tested, either using manually prepared plates of aztreonam, cefepime, ceftazidime, and amoxicillin or premade plates of meropenem (Sensititre), and all antibiotics tested at a twofold increasing concentration of 0.03–64 mg/L (Table 1; Table S3). Compound APC24-7 was tested at a fixed concentration of 14, 28, and 57 µM (8, 16, or 32 mg/L) with meropenem, and for all other BLs tested at the highest inhibitor concentration to be able to compare the efficiency of the BI/BLI combinations. Taniborbactam was tested at a fixed equimolar concentration (6.5, 13, and 26 mg/L) and only evaluated with meropenem. A minimum of 2–3 replicates was performed for all combinations. Assay plates were incubated at 37°C without shaking for 16–20 h, and the results were visually interpreted in accordance with EUCAST guidelines and clinical breakpoint table version 15.0 (www.eucast.org).

Another assay relates to T4, Escherichia coli #29.
T4 construct: #29
On the set-up: species or system clinical isolates of E. coli and K. pneumoniae; Broth microdilution MIC (CLSI), cation-adjusted Mueller-Hinton broth, visual reading, antibiotic alone against clinical isolates. The note with it: Escherichia coli, antibiotic alone. How it is done: as §2

The next assay concerns T5, Escherichia coli #36.
T5 construct: #36
On the set-up: species or system clinical isolates of E. coli and K. pneumoniae; Broth microdilution MIC (CLSI), cation-adjusted Mueller-Hinton broth, visual reading, antibiotic alone against clinical isolates. To be noted: Escherichia coli, antibiotic alone. How it is done: as §2

The subject of assay [1] is T6, Escherichia coli BAA-2469.
T6 construct: ATCC BAA-2469
Set-up: species or system clinical isolates of E. coli and K. pneumoniae; Broth microdilution MIC (CLSI), cation-adjusted Mueller-Hinton broth, visual reading, antibiotic alone against clinical isolates. The note with it: Escherichia coli, BAA2469, antibiotic alone. The method, then:
as §2

Assay [2] has as its system T7, Klebsiella pneumoniae BAA-2146.
T7 construct: ATCC BAA-2146
On the set-up: species or system clinical isolates of E. coli and K. pneumoniae; Broth microdilution MIC (CLSI), cation-adjusted Mueller-Hinton broth, visual reading, antibiotic alone against clinical isolates. The note with it: Klebsiella pneumoniae, BAA2146, antibiotic alone. How it is done:
as §2

Assay [3] concerns T8, Klebsiella pneumoniae BAA1705.
T8 construct: ATCC BAA-1705
On the set-up: species or system clinical isolates of E. coli and K. pneumoniae; Broth microdilution MIC (CLSI), cation-adjusted Mueller-Hinton broth, visual reading, antibiotic alone against clinical isolates. To be noted: Klebsiella pneumoniae, BAA1705, antibiotic alone. How it is done:
as §2

Assay [4] has as its system T9, Klebsiella pneumoniae K46-62.
T9 construct: K46-62
On the set-up: species or system clinical isolates of E. coli and K. pneumoniae; Broth microdilution MIC (CLSI), cation-adjusted Mueller-Hinton broth, visual reading, antibiotic alone against clinical isolates. The note with it: Klebsiella pneumoniae, K4662, antibiotic alone. The method, then:
as §2

The subject of assay [5] is T10, Klebsiella pneumoniae K66-45.
T10 construct: K66-45
On the set-up: species or system clinical isolates of E. coli and K. pneumoniae; Broth microdilution MIC (CLSI), cation-adjusted Mueller-Hinton broth, visual reading, antibiotic alone against clinical isolates. The note with it: Klebsiella pneumoniae, K6645, antibiotic alone. How it is done:
as §2

Assay [6] concerns T11, Klebsiella pneumoniae KresCPE0097.
T11 construct: KresCPE0097
Set-up: species or system clinical isolates of E. coli and K. pneumoniae; Broth microdilution MIC (CLSI), cation-adjusted Mueller-Hinton broth, visual reading, antibiotic alone against clinical isolates. To be noted: Klebsiella pneumoniae, KRESCPE0097, antibiotic alone. The method, then: as §2

The subject of assay [7] is T12, Klebsiella pneumoniae KresCPE0353.
T12 construct: KresCPE0353
On the set-up: species or system clinical isolates of E. coli and K. pneumoniae; Broth microdilution MIC (CLSI), cation-adjusted Mueller-Hinton broth, visual reading, antibiotic alone against clinical isolates. The note with it: Klebsiella pneumoniae, KRESCPE0353, antibiotic alone. How it is done: as §2

Assay [8] relates to T13, Klebsiella pneumoniae KresCPE0367.
T13 construct: KresCPE0367
On the set-up: species or system clinical isolates of E. coli and K. pneumoniae; Broth microdilution MIC (CLSI), cation-adjusted Mueller-Hinton broth, visual reading, antibiotic alone against clinical isolates. To be noted: Klebsiella pneumoniae, KRESCPE0367, antibiotic alone. The method, then:
as §2

The subject of assay [9] is T14, Klebsiella pneumoniae KresCPE0372.
T14 construct: KresCPE0372
On the set-up: species or system clinical isolates of E. coli and K. pneumoniae; Broth microdilution MIC (CLSI), cation-adjusted Mueller-Hinton broth, visual reading, antibiotic alone against clinical isolates. To be noted: Klebsiella pneumoniae, KRESCPE0372, antibiotic alone. How it is done: as §2

Setting [10] is: read-out: MIC APC24-7 (μM) / APC148*.
[11] abbreviates: read-out: MIC FEP (mg/L) / FEP alone.
Setting [12] is: read-out: MIC APC24-7 (μM) / Taniborbactam**.
Setting [13] is: read-out: MIC AZT (mg/L) / AZT alone.
Setting [14] is: read-out: MIC AMX (mg/L) / AMX alone.

Molecules are shown by their SMILES. Like-named read-outs stand apart in the source and are kept apart here. Where only a bound is given, the exact number is not on record here.

Regarding `CN(C[C@H](O)[C@@H](O)[C@H](O)[C@H](O)CO)C(=O)c1ccc(CN(Cc2ccccn2)Cc2ccccn2)nc1` [APC148], the MIC with Escherichia coli MP21-05 (setting [10]) and in the assay on Escherichia coli MP32-64 (setting [10]) was more than 906 µM each time.

With `CO/N=C(\C(=O)N[C@@H]1C(=O)N2C(C(=O)[O-])=C(C[N+]3(C)CCCC3)CS[C@H]12)c1csc(N)n1` [cefepime], the MIC (in the assay with Escherichia coli #22 (setting [11]); in the assay on Escherichia coli #29 (setting [11]); with Escherichia coli #36 (setting [11]); in assay [1] (setting [11]); in assay [2] (setting [11]); in assay [3] (setting [11])) was more than 64 mg/L each time. Further, the MIC was more than 64 mg/L in [4] (setting [11]); more than 64 mg/L in assay [5] (setting [11]); 16 mg/L in [6] (setting [11]); more than 64 mg/L in [7] (setting [11]); more than 64 mg/L in assay [8] (setting [11]); more than 64 mg/L in assay [9] (setting [11]).

Regarding `CC(C)(O/N=C(\C(=O)N[C@@H]1C(=O)N2C(C(=O)[O-])=C(C[n+]3ccccc3)CS[C@H]12)c1csc(N)n1)C(=O)O` [ceftazidime], the MIC (in the assay on Escherichia coli #22 (read-out: MIC); with Escherichia coli #29 (read-out: MIC); with Escherichia coli #36 (read-out: MIC); in assay [1] (read-out: MIC); in assay [2] (read-out: MIC); in assay [3] (read-out: MIC)) was more than 64 mg/L each time. The MIC in assay [4] (read-out: MIC) is more than 64 mg/L; in [5] (read-out: MIC) it was more than 64 mg/L; in assay [6] (read-out: MIC), 8 mg/L; in [7] (read-out: MIC), more than 64 mg/L; in assay [8] (read-out: MIC) it was more than 64 mg/L; in assay [9] (read-out: MIC) it was more than 64 mg/L.

`NCCN[C@H]1CC[C@H](CC(=O)N[C@H]2Cc3cccc(C(=O)O)c3OB2O)CC1` [taniborbactam]: the MIC with Escherichia coli MP21-05 (setting [12]) and in the assay on Escherichia coli MP32-64 (setting [12]) was more than 906 µM in each case.

On to `C[C@H]1[C@H](NC(=O)/C(=N\OC(C)(C)C(=O)O)c2csc(N)n2)C(=O)N1S(=O)(=O)O` [aztreonam], for which the MIC in the assay with Escherichia coli #22 (setting [13]) is more than 64 mg/L; with Escherichia coli #29 (setting [13]), more than 64 mg/L; with Escherichia coli #36 (setting [13]), more than 64 mg/L; in assay [1] (setting [13]) it was 16 mg/L; in [2] (setting [13]) it was more than 64 mg/L; in assay [3] (setting [13]) it was more than 64 mg/L. The MIC in assay [4] (setting [13]) is more than 64 mg/L; in [5] (setting [13]) it was more than 64 mg/L; in assay [6] (setting [13]), 64 mg/L; in assay [7] (setting [13]) it was more than 64 mg/L; in assay [8] (setting [13]), more than 64 mg/L; in assay [9] (setting [13]), 32 mg/L.

For the compound `CC1(C)S[C@@H]2[C@H](NC(=O)[C@H](N)c3ccc(O)cc3)C(=O)N2[C@H]1C(=O)O` [amoxicillin], the MIC (in the assay on Escherichia coli #22 (setting [14]); with Escherichia coli #29 (setting [14]); in the assay on Escherichia coli #36 (setting [14]); in [1] (setting [14]); in [2] (setting [14]); in assay [3] (setting [14])) was more than 64 mg/L each time. The MIC in assay [4] (setting [14]), in assay [5] (setting [14]), in assay [6] (setting [14]), in assay [7] (setting [14]), in assay [8] (setting [14]) and in [9] (setting [14]) was more than 64 mg/L each time.
